Laboratory results taken from PubChem BioAssay (NCI).
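Five concentrations, 48 hours, 96-well plates. GI50: concentration for 50% inhibition of growth. TGI is the concentration that stops growth completely.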

Tests used:
Assay in all cases: DTP human tumour cell line panel, 48 h
CCRF-CEM leukemia = system: CCRF-CEM leukemia
COLO 205 colon = system: COLO 205 colon
EKVX NSCLC = system: EKVX NSCLC
HCC-2998 colon = system: HCC-2998 colon
HOP-92 NSCLC = system: HOP-92 NSCLC
NCI-H23 lung = system: NCI-H23 lung
OVCAR-5 ovarian = system: OVCAR-5 ovarian
SF-295 CNS = system: SF-295 CNS
SF-539 CNS = system: SF-539 CNS
UACC-257 melanoma = system: UACC-257 melanoma

| Compound | GI50 (CCRF-CEM leukemia) [nM] | TGI (CCRF-CEM leukemia) [µM] | GI50 (COLO 205 colon) [nM] | TGI (COLO 205 colon) [µM] | GI50 (EKVX NSCLC) [nM] | TGI (EKVX NSCLC) [µM] | GI50 (HCC-2998 colon) [nM] | TGI (HCC-2998 colon) [µM] | GI50 (HOP-92 NSCLC) [nM] | TGI (HOP-92 NSCLC) [µM] | GI50 (NCI-H23 lung) [nM] | TGI (NCI-H23 lung) [µM] | GI50 (OVCAR-5 ovarian) [nM] | TGI (OVCAR-5 ovarian) [µM] | GI50 (SF-295 CNS) [nM] | TGI (SF-295 CNS) [µM] | GI50 (SF-539 CNS) [nM] | TGI (SF-539 CNS) [µM] | GI50 (UACC-257 melanoma) [nM] | TGI (UACC-257 melanoma) [µM] |
| --- | --- | --- | --- | --- | --- | --- | --- | --- | --- | --- | --- | --- | --- | --- | --- | --- | --- | --- | --- | --- |
| c1cc(OCCN2CCCCC2)ccc1CNc1ccc2nc(CCC3CCCCC3)[nH]c2c1 | 1970 | 8.34 | 1760 | 3.31 | 1990 | 6.19 | 2050 | 4.28 | 565 | 2.45 | 2030 | 4.91 | 2040 | 5.64 | 1980 | 3.88 | 1570 | 3.06 | 1910 | 3.89 |
| COc1ccc(CNc2c3ccccc3nc3ccc(OC)cc23)cc1 | 3090 | 13.3 | 1760 | 3.99 | 3150 | 12.2 | 1850 | 3.76 | 2170 | 7.69 | 1780 | 4.71 | 2640 | 9.52 | 1730 | 4.27 | 1960 | 4.13 | 2150 | 4.81 |
| CCOC(=O)C1=C(Nc2ccc(Cl)cc2Cl)OC/C1=N\NS(=O)(=O)c1ccc(C)cc1 | – | > 100 | – | > 100 | – | > 100 | – | > 100 | – | > 100 | – | > 100 | – | > 100 | – | > 100 | – | > 100 | – | > 100 |
